From patent US10858688B2, “Observation method using binding and dissociation probe” (KYOTO UNIVERSITY, priority 2015, dated 2020)
Where no end group is shown, it is not given here.

Columns and labels:
focal adhesion [1] = experiment: Localization test of probe candidates (integrated SiMS images); type: cell-based, Xenopus laevis; parameters: key: “localization” is positive (P) when above criterion (1) is met; settings: fixed, permeabilized XTC cell; lysate supernatant of EGFP fused probe; TIRF, 10000 frames
Description: (§1) HEK (Human embryonic kidney)-293F cells were transfected with a plasmid encoding a probe candidate protein tagged with FLAG-EGFP or 3×FLAG-EGFP. […] Centrifugal separation was performed on the lysate and the supernatant liquid was collected. In order to perform screening for a probe for IRIS, the binding capacity of a probe candidate in the supernatant liquid with respect to the structure of an XCT cell that was fixed with paraformaldehyde (PFA) and that received a permeabilization process was tested. The appearance and disappearance of single molecule speckles (Single-molecule speckles, SiMS) in the structure was tested. Screening was performed for a probe for IRIS in accordance with the following criteria:
(§2) (1) It is possible to confirm a distribution of target substances in the structure in an image resulting from adding SiMS images;
(§3) The localization test of the above (1), whose result is shown in table 1, was performed in the following procedures. First, the supernatant liquid of lysate of a cell that expressed each probe candidate was brought into contact with an XCT cell that was fixed on a coverglass and that received a permeabilization process. […] The obtained speckle images of 10000 frames were integrated so as to confirm whether or not a distribution of target substances in the cell (microtubule, intermediate filament, focal adhesion or actin filament) was able to be confirmed. When a distribution of a target substances was able to be confirmed, the result of the localization test was treated as P (positive).

focal adhesion [2] = experiment: Washability test of probe candidates; type: cell-based, Xenopus laevis; parameters: key: “washability” is positive (P) when above criterion (2) is met; settings: speckles equal to or less than about 10% after switching imaging solution 10 to 20 times
Description: (§4) (2) It is possible to wash and remove a probe after SiMS imaging (imaging step);
(§5) The […] of the above (2), whose result is shown in table 1, was performed in the following procedures. […] This switching of imaging solution was conducted slowly so that the observation position would not shift. Next, an imaging solution not containing a probe and not containing the active oxygen-scavenging mix was switched 10 to 20 times. After the switching, for confirmation, for an XCT cell sample in the observation chamber, speckle images of 10 frames were picked up under a similar condition to that of the localization test described in the previous paragraph, and when the number of speckles confirmed in the speckle images (i.e., the number of probes that had bound) became sufficiently smaller (equal to or less than about 10%) than the number of the speckles in the speckle images before the washing operation, washing was determined to be possible and the result was treated as P (positive).

focal adhesion [3] = experiment: IRIS image test (reconstruction image); type: cell-based, Xenopus laevis; parameters: key: “IRIS image” is positive (P) when above criterion (3) is met; settings: reconstruction from 10000 frames with DAOSTORM
Description: (§6) […] It is possible to reconstruct an image of a target substance by integrating the central positions of the respective speckles. The IRIS image test of the above (3) whose result is described in table 1 was performed in the following procedures. By using all the speckle images of 10000 frames picked up in the localization test, the central point of a probe that has bound to a target in each frame of the speckle images was determined with nanometer accuracy by using DAOSTORM. By adding a large number of pieces of central point information in the fluorescence images of 10000 frames, a reconstruction image (observation image) was generated. Whether or not a distribution of a target molecule was able to be observed in that reconstruction image was determined, and when a distribution of a target molecule was observed, the result was treated as P (positive).

focal adhesion [4] = experiment: Measurement of binding half-life of probe-target complex; parameters: species or system Xenopus laevis; settings: fixed XTC cell, single exponential fit
Text: (§7) A probe and a target substance have the following binding characteristics. […] The above half-life herein is preferably a half-life of a probe-target complex formed by binding between a probe and a target substance in a case when a medium containing a probe and a sample containing a target substance that is to be observed are brought into contact under a condition for performing an imaging step. […] Measurement procedures for the half-life are as below. […] Ndissociation is a cumulative relative frequency of a probe that dissociated. A cumulative relative frequency is a ratio of the speckles that disappeared within a given period of time to the total number of measured speckles (i.e. probes) (i.e. probes that dissociated within a given period of time), and represents the total number as 1. Then, by fitting the above complementary cumulative relative frequency function with an exponent function, that half-life is calculated.
The measurement of binding half-life, whose result is shown in table 1, was performed in the following procedures. […] Then, by fitting the complementary cumulative relative frequency function with an exponent function, the half-life was calculated. However, the binding half-life with respect to an actin filament of Atto488-Lifeact was measured by using a method that is described in detail in the section for FIG. 9 in the Brief Description of the Drawings.

actin filament = settings: document 10; cited from earlier work
microtubule [5] = experiment: Localization test of probe candidates (integrated SiMS images); type: cell-based, Xenopus laevis; parameters: key: “localization” is positive (P) when above criterion (1) is met; settings: fixed, permeabilized XTC cell; lysate supernatant of EGFP fused probe; TIRF, 10000 frames
Description: as §1, §2, §3

microtubule [6] = experiment: Washability test of probe candidates; type: cell-based, Xenopus laevis; parameters: key: “washability” is positive (P) when above criterion (2) is met; settings: speckles equal to or less than about 10% after switching imaging solution 10 to 20 times
Description: as §4, §5

microtubule [7] = experiment: Measurement of binding half-life of probe-target complex; parameters: species or system Xenopus laevis; settings: fixed XTC cell, single exponential fit
Text: as §7
The measurement of binding half-life, whose result is shown in table 1, was performed in the following procedures. Speckle images of 10000 frames picked up in the localization test were used in order to measure a period of time between the appearance of a probe that has bound to a target in a speckle image and disappearance through dissociation in a semi-manual mode by using Speckle TrackerJ, an ImageJ plug-in. In case of for example picking up of images with an exposure time of 50 ms and at a frame rate of 20 Hz, it is assumed that a period of time between the appearance and disappearance of a speckle that is observed in only one of consecutive frames is 50 ms and a period of time between the appearance and disappearance of a speckle observed in only two consecutive frames is 100 ms. […] Ndissociation is a cumulative relative frequency of probes that dissociated. Then, by fitting the complementary cumulative relative frequency function with an exponent function, the half-life was calculated. However, the binding half-life with respect to an actin filament of Atto488-Lifeact was measured by using a method that is described in detail in the section for FIG. 9 in the Brief Description of the Drawings.

microtubule [8] = experiment: IRIS image test (reconstruction image); type: cell-based, Xenopus laevis; parameters: key: “IRIS image” is positive (P) when above criterion (3) is met; settings: reconstruction from 10000 frames with DAOSTORM
Description: as §6

microtubule [9] = experiment: Labeling patterns of microtubules in TIRF IRIS images; type: cell-based, Xenopus laevis; settings: for labeling of microtubule plus end (tip): when EB1 existed (cold methanol-preprocessed cells)
Text: FIG. 12 show labeling patterns of microtubules by a CLIP-170 fragment (amino acid residues 3-309 of sequence number 12), an APC fragment (amino acid residues 2536-2843 of sequence number 14), a MAP4 fragment (amino acid residues 1-908 of sequence number 4) and Tau isoform 3 (full length of sequence number 5). The patterns are different depending upon procedures for fixing cells. FIG. 12 (a) and FIG. 12 (b) show live-cell imaging during the fixation operation. In FIG. 12 (a), the accumulation of EB1-EGFP at the tips of microtubules disappeared in a process by 3.7% PFA and 0.5% Triton-X 100. In FIG. 12 (b), EB1-EGFP was fixed in a state in which it was accumulated at the tips of the microtubules in a process by cold methanol. […] With these probes, IRIS images of the entire microtubules were obtained. […] The microtubule tips were labeled strongly with a CLIP-170 fragment while they were weakly labeled with a MAP4 fragment and Tau isoform 3 (see merged images in the lower tier).
A plurality of IRIS probes for a microtubule and a focal adhesion visualized different sites of their structure bodies. […] The result corresponds to in-vitro data (document 26). Further, Paxillin and the Src fragment visualized different portions of focal adhesion (FIG. 13). Thus, IRIS can also be applied to mapping analysis of a site in which a plurality of protein fragments bind. Development of an IRIS probe that binds to a molecule in a specific state also makes it is possible to perform super-resolution mapping on the molecule in the specific state.

| HALF-LIFE (focal adhesion [4]) | HALF-LIFE (microtubule [7]) | Substance | LOCALIZATION (focal adhesion [1]) | WASHABILITY (focal adhesion [2]) | IRIS IMAGE (focal adhesion [3]) | time of being exchanged on an actin filament (actin filament) | LOCALIZATION (microtubule [5]) | WASHABILITY (microtubule [6]) | IRIS IMAGE (microtubule [8]) | labeling of microtubule (microtubule [9]; when EB1 did not exist (PFA and Triton-X 100)) | labeling of microtubule plus end (tip) (microtubule [9]) |
| --- | --- | --- | --- | --- | --- | --- | --- | --- | --- | --- | --- |
| 0.246 s |  | Paxillin 54-557: EGFP fused (N terminus) human Paxillin fragment, residues 54-557 of sequence number 15 | P | P | P |  |  |  |  |  |  |
| 0.196 s |  | Paxillin 1-557: EGFP fused (N terminus) human Paxillin, full length 1-557 of sequence number 15 | P | P | P |  |  |  |  |  |  |
|  |  | Lifeact: widely used actin marker; short peptide that stains an actin filament in a live cell or a fixed cell (document 10) (MGVADLIKKFESISKEE) |  |  |  | ≤ 0.4 s |  |  |  |  |  |
|  | 0.027 s | APC 2781-2819: EGFP fused (N terminus) human APC fragment, amino acid residues 2781-2819 of sequence number 14 ({EGFP}-VTPFNYNPSPRKSSADSTSARPSQIPTPVNNNTKKRDSK; UniProt P25054 2781-2819, looked up, fragment) |  |  |  |  | P | P | P |  |  |
|  | 0.044 s | CLIP-170: EGFP fused (N terminus) rat CLIP-170 fragment, amino acid residues 3-309 of sequence number 12 |  |  |  |  | P | P | P | continuously labeled the entire microtubule | strongly labeled |
|  | 0.06 s | TAU ISOFORM 4: EGFP fused (N terminus) human Tau isoform 4, 1-352 of sequence number 6 |  |  |  |  | P | P | P |  |  |
|  | 0.1 s | APC 2536-2843: EGFP fused (C terminus) human APC fragment, amino acid residues 2536-2843 of sequence number 14 |  |  |  |  | P | P | P |  |  |
|  | 0.11 s | TAU ISOFORM 3: EGFP fused (N terminus) human Tau isoform 3, full length 1-383 of sequence number 5 |  |  |  |  | P | P | P |  | weakly visualized |
|  | 0.109 s | MAP4 1-908: EGFP fused (N terminus) mouse MAP4 fragment, amino acid residues 1-908 of sequence number 4 |  |  |  |  | P | P | P |  | weakly visualized |
